Data published in paper PMC12320299 (Chemical Science, 2025).

Columns and labels:
[1] = Tissue and plasma proteome profiling of 1a-treated CT26-bearing mice; type: in vivo, BALB/c mice; details: 10 mg kg^−1, five days
Description: On day five, tumour, liver and blood were harvested two hours after the last injection of 1a. Blood plasma and livers were harvested to obtain insight into systemic drug effects and tumours were collected to obtain information about local effects of the candidate drug.
For proteomic workup, the fresh tissue samples were quickly rinsed with PBS and shock-frozen in liquid nitrogen. Blood plasma was immediately prepared by centrifugation of the collected blood in ethylenediaminetetraacetic acid (EDTA) tubes. The samples were analysed in technical duplicates due to the expected larger heterogeneity and statistical evaluation was performed using the LIMMA algorithm[73] and gene set variation analysis (GSVA).[74] […] Statistical significance was calculated based on multi-parameter testing-adjusted P-values […].
Animals. All experiments were carried out with male Balb/c mice according to the regulation of the Ethics Committee for the Care and Use of Laboratory Animals at the Medical University Vienna (BMWF-2022-0.770.291), the guidelines from the Austrian Animal Science Association and the Federation of European Laboratory Animal Science Associations (FELASA). The animals were kept in a pathogen-free conditions, controlled environment with 12 h light–dark cycle with ad libitum access to food and water. Every procedure was done in a laminar airflow […]
Treatment. CT-26 cells ([…] in 50 μL serum-free medium) were injected subcutaneously (s.c.) into the right flank of ten– to eleven-week-old male Balb/c mice. Three days after cell injection, all compounds (dissolved in 10% DMSO in water) were administered […]
In case of the proteomic profiling […]
in water for 5 consecutive days. On the last day, 2 h after the last treatment, mice were euthanized, and blood was collected in an EDTA tube via heart punctation. Tumours and livers were harvested, quickly rinsed with PBS and snap-frozen in liquid nitrogen. Blood plasma was obtained by centrifugation (2×10 min at 900 g). […]
Sample Processing. All steps were performed on ice. The frozen tissue samples (weights ranging from 8.6– 51.5 mg) were transferred to 15 mL Falcon tubes containing 150 µL sodium deoxycholate lysis buffer (SDC; 0.4 g SDC, 500 μL Tris∙HCl (pH 8.8) in 9.5 mL H2O) and homogenized with a sonication probe (Bandelin Sonoplus HD 2070; Bandelin Electronic GmbH & Co. KG, Berlin, Germany). After sonication the homogenates were centrifuged at 10.000 g for 5 minutes and the resulting supernatant was transferred to new reaction tubes. […]
EDTA-anticoagulated plasma samples were diluted in SDC buffer at a ratio of 1 : 20, heated at 95 °C for 5 min and stored at –20 °C. The protein concentration of each sample was determined using a BCA assay. […]

TP53 = experiment: Immunofluorescence staining of TP53; type: cell-based, human; details: SW480, 24 h; 1a 1 μM; etoposide 100 nM
Protocol: Cell Signaling Technology (Danvers, MA, USA), respectively. Horseradish-peroxidase-linked secondary antibodies, anti-mouse IgG (Fc specific) antibody (#7076S) and anti-rabbit IgG antibody (#7074S) were purchased from Cell Signaling Technology (Danvers, MA, USA). Anti-ß-actin (AC-15) (A5441, 1:2000) was obtained from Sigma-Aldrich (St. Louis, MO, USA).
SW480 and CT26 cells were grown at a density of 6.7x10^4 cells/mL on 8-well glass coverslips (80841, ibidi GmbH, Gräfelfing, Germany) in 300 µL complete media. The next day, cells were treated with respective compounds for 24 h. Cells were fixed with 4%(v/v) paraformaldehyde for 15 min at RT, followed by washing, blocking and permeabilization with 5%(w/v) BSA and […]
(1 : 500) were diluted in 1% BSA-0.3% Triton-X-100 in PBS and incubated overnight at 4 °C.
One well was incubated without primary antibody as background control. Cells were washed and stained with secondary goat anti-mouse AlexaFlour-488 (1 : 500 dilution, A-11029, Thermo Fisher Scientific) or goat anti-rabbit AlexaFlour-488 (1 : 500 dilution, A-11034, Thermo Fisher Scientific) antibodies for 1 h at RT. Following, cells were stained with 0.2% Wheat Germ Agglutinin (WGA)-Rhodamine (RL-1022, Vector Laboratories, Inc.) and 0.1% DAPI (62248, Thermo Fisher Scientific) for staining of plasma membrane and nuclei, respectively, according to manufacturer’s recommendations. […]

SMILES: CCC1=C2[O][Ru][O]C2(n2cccn2)c2ccccc2C1=O.Cc1ccc(C(C)C)cc1 (centres unmarked) [Compound 1a, [(3-ethyl-4-oxo-(pyrazolyl)-dihydronaphthalene)(cymene)ruthenium(II)]]
- EGFR level in tumour [1]: down-regulated
- statistically significant regulations, plasma ([1]; of 285 identified): 79
- statistically significantly regulated proteins, liver ([1]; of 2770 identified): 14
- statistically significant regulations, tumour ([1]; of 3867 identified): 5
- TP53 immunofluorescence signal (TP53): decisive loss of TP53 signal intensity
